From US20260308145A1, “CDK2 INHIBITORS AND METHODS OF USING SAME” (Shenzhen lonova Life Science Co., Ltd., priority 2023, published 2026)

Assays:
Assay type in all cases: biochemical
CDK1/cyclinB1 = biological target: T1, CDK1/cyclinB1 (Homo sapiens, UniProt P06493); assay: Cyclin-dependent kinase activity assay (continuous ATP coupling assay), CDK1/cyclinB1; conditions: CDK1/cyclinB1 10 nM, ATP 200 μM, Histone1 copeptide 100 μM, 15 min preincubation, pH 7.5, 1% DMSO
T1 construct: purchased Carna Biosciences 04-102
T1 sequence (P06493 whole entry): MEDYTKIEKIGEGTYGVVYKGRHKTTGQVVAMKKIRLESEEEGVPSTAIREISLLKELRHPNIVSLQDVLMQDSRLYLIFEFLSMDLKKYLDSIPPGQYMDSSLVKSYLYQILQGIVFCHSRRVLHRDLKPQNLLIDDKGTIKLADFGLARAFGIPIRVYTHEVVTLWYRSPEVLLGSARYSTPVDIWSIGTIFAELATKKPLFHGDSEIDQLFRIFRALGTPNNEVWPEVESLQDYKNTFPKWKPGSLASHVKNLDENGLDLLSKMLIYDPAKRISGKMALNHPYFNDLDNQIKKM
T1 sequence (P14635 whole entry partner): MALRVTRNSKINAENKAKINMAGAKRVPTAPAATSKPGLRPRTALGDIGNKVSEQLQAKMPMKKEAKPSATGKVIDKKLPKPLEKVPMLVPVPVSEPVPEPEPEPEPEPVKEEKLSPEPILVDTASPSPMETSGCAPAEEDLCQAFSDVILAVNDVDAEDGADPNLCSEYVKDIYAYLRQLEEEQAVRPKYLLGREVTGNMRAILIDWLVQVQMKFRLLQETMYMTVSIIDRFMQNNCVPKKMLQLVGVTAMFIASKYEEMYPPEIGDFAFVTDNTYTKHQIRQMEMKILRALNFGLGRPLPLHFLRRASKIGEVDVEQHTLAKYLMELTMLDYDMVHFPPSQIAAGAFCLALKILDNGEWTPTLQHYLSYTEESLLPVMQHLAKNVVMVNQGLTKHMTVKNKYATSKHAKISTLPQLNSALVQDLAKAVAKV
Procedure: (§1) Cyclin-dependent kinase activity assay was measured by continuous ATP coupling assay in which ADP generated by kinase catalyzed phosphorylation was converted back to ATP by consuming phosphoenolpyruvate (PEP) and NADH catalyzed by pyruvate kinase/lactate dehydrogenase (PK/LDH). The assay compositions (see, Table 1) consist of one of the kinases, including CDK1/cyclinB1, CDK2/cyclinE1, CDK4/cyclinD3, and CDK6/cyclinD3 at the designated concentration, ATP at the corresponding Km of the kinase, copeptide and the ATP coupling system of PEP, NADH and PK/LDH. The assay was conducted in a reaction buffer of 20 mM Tris (pH 7.5) with 50 mM NaCl, 0.5 mM DTT and 0.04% BSA, and results were monitored continuously by fluorescence decrease of NADH with excitation at 340 nm and emission at 460 nm. Linear regression of the resulting reaction time traces gave reaction velocities.
(§2) For inhibition assay, compounds were first serial diluted in a 1:3 ratio from 10 μM to 0.05 nM using 10× reaction buffer. One of the CDK kinase was then introduced to compounds solution and incubated for 15 min. Finally, the compositions of ATP coupling system were introduced to the resulting solution to initiate the reaction. The final reaction mixture was in 1× reaction assay buffer with 1% DMSO. The half-maximal inhibition concentrations (IC50) for compounds were determined by fitting the plots of reaction velocity against compound concentration with 4-variable IC50 equation. The inhibition constants (Ki) were determined by fitting the same plots with quadratic/Morrison equation. Data were analyzed using commercially available software Graphpad Prism.
(§3) Exemplary results are presented as calculated IC50 values. • A: IC50≤10 nM • B: IC50>10 nM and IC50<100 nM • C: IC50≥100 nM

CDK2/cyclinE1 = biological target: T2, CDK2/cyclinE1 (Homo sapiens, UniProt P24941); assay: Cyclin-dependent kinase activity assay (continuous ATP coupling assay), CDK2/cyclinE1; conditions: CDK2/cyclinE1 5 nM, ATP 300 μM, Rb copeptide 100 μM, 15 min preincubation, pH 7.5, 1% DMSO
T2 construct: purchased Carna Biosciences 04-165
Procedure: as §1, §2, §3

CDK4/cyclinD3 = biological target: T3, CDK4/cyclinD3 (Homo sapiens, UniProt P11802); assay: Cyclin-dependent kinase activity assay (continuous ATP coupling assay), CDK4/cyclinD3; conditions: CDK4/cyclinD3 60 nM, ATP 500 μM, Rb copeptide 500 μM, 15 min preincubation, pH 7.5, 1% DMSO
T3 construct: purchased Carna Biosciences 04-105
T3 sequence (P11802 whole entry): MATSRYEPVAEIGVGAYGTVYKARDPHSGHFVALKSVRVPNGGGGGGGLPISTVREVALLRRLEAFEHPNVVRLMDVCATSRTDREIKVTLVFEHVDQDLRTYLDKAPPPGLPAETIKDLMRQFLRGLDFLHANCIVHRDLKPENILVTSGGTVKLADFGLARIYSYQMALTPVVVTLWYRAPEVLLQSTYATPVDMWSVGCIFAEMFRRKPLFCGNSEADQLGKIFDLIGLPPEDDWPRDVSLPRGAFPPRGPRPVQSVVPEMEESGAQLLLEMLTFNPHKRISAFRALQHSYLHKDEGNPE
T3 sequence (P30281 whole entry partner): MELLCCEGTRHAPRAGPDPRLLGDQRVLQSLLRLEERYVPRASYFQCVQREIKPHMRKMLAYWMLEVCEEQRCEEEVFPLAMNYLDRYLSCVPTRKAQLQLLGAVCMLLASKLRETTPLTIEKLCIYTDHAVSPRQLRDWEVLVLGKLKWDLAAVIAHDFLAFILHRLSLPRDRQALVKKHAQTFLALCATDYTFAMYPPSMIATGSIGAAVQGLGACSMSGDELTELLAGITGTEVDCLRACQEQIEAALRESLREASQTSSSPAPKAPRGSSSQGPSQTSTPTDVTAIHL
Procedure: as §1, §2, §3

CDK6/cyclinD3 = biological target: T4, CDK6/cyclinD3 (Homo sapiens, UniProt Q00534); assay: Cyclin-dependent kinase activity assay (continuous ATP coupling assay), CDK6/cyclinD3; conditions: CDK6/cyclinD3 25 nM, ATP 500 μM, Rb copeptide 500 μM, 15 min preincubation, pH 7.5, 1% DMSO
T4 construct: purchased Carna Biosciences 04-107
T4 sequence (Q00534 whole entry): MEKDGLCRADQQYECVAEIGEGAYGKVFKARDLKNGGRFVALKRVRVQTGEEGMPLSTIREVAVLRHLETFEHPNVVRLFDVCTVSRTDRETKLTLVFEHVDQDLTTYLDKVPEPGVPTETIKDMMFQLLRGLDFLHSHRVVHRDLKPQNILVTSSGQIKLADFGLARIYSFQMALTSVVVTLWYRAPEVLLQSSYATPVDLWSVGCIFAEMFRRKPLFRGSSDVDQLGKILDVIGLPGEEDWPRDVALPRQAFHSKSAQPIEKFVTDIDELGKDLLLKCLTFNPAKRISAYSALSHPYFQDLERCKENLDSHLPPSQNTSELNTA
T4 sequence (P30281 whole entry partner): as the sequence (P30281 whole entry partner) above
Procedure: as §1, §2, §3

| Compound | IC50 (CDK1/cyclinB1) | IC50 (CDK2/cyclinE1) | IC50 (CDK4/cyclinD3) | IC50 (CDK6/cyclinD3) |
| --- | --- | --- | --- | --- |
| CNS(=O)(=O)c1ccc(Nc2ncc(C(F)(F)F)c(-n3cc(C4CCOC4)cn3)n2)cc1 (single isomer, unassigned) [Example 89] | ≥ 100 nM | ≤ 10 nM | 10 to 100 nM | 10 to 100 nM |
| CNS(=O)(=O)c1ccc(Nc2ncc(C(F)(F)F)c(-n3cc(CC(C)C)cn3)n2)cc1 [Example 48] | ≥ 100 nM | 10 to 100 nM | ≤ 10 nM | 10 to 100 nM |
| [2H]C([2H])([2H])NS(=O)(=O)c1ccc(Nc2ncc(C(F)(F)F)c(-n3cc(CCC(C)(C)O)cn3)n2)cc1 [Example 61] | ≥ 100 nM | ≤ 10 nM | 10 to 100 nM | ≥ 100 nM |
| O=S(=O)(NC1CC1)c1ccc(Nc2ncc(C(F)(F)F)c(-n3cccn3)n2)cc1 [Example 30] | ≥ 100 nM | 10 to 100 nM | ≥ 100 nM | ≥ 100 nM |
| CNS(=O)(=O)c1ccc(Nc2nccc(-n3cccn3)n2)cc1 [Example 23] | ≥ 100 nM | ≥ 100 nM | ≥ 100 nM | ≥ 100 nM |
| CNS(=O)(=O)c1cccc(Nc2ncc(C(F)(F)F)c(-n3cccn3)n2)c1 [Example 122] | ≥ 100 nM | ≥ 100 nM | ≥ 100 nM | ≥ 100 nM |
| CN1CCC(N2CCN(c3ccc(Nc4ncc(C(F)(F)F)c(-n5cccn5)n4)cc3)CC2)CC1 [Example 33] | ≥ 100 nM | ≥ 100 nM | ≥ 100 nM | ≥ 100 nM |
| O=S(=O)(NCCO)c1ccc(Nc2ncc(C(F)(F)F)c(-n3cccn3)n2)nc1 [Example 137] | ≥ 100 nM | ≥ 100 nM | ≥ 100 nM | ≥ 100 nM |
| Cc1cc(S(=O)(=O)NCCO)ccc1Nc1ncc(C(F)(F)F)c(-n2cccn2)n1 [Example 126] | ≥ 100 nM | ≤ 10 nM | ≥ 100 nM | ≥ 100 nM |
| CNS(=O)(=O)c1ccc(Nc2ncc(C(F)(F)F)c(-n3ccc(C4CC4)n3)n2)cc1 [Example 56] | ≥ 100 nM | ≥ 100 nM | ≥ 100 nM | ≥ 100 nM |
| CNS(=O)(=O)c1ccc(Nc2ncc(Cl)c(-n3cccn3)n2)cc1 [Example 24] | ≥ 100 nM | 10 to 100 nM | ≥ 100 nM | ≥ 100 nM |
| CNS(=O)(=O)c1ccc(Nc2ncc(C(F)(F)F)c(-n3cc(C4CC4(F)F)cn3)n2)cc1 (single isomer, unassigned) [Example 52, 4-[[4-[4-(2,2-difluorocyclopropyl)pyrazol-1-yl]-5-(trifluoromethyl)pyrimidin-2-yl]amino]-N-methyl-benzenesulfonamide] | ≥ 100 nM | 10 to 100 nM | ≥ 100 nM | 10 to 100 nM |
| CNS(=O)(=O)c1ccc(Nc2ncc(C(F)(F)F)c(-n3cc(C4CCN(C(C)=O)CC4)cn3)n2)cc1 [Example 14] | ≥ 100 nM | 10 to 100 nM | 10 to 100 nM | ≥ 100 nM |
| CNS(=O)(=O)c1ccc(Nc2ncc(C)c(-n3cccn3)n2)cc1 [Example 22] | ≥ 100 nM | 10 to 100 nM | ≥ 100 nM | ≥ 100 nM |
| O=S(=O)(CCCO)c1ccc(Nc2ncc(C(F)(F)F)c(-n3cccn3)n2)cc1 [Example 130, 3-[4-[[4-pyrazol-1-yl-5-(trifluoromethyl)pyrimidin-2-yl]amino]phenyl]sulfonylpropan-1-ol] | ≥ 100 nM | 10 to 100 nM | ≥ 100 nM | ≥ 100 nM |
| CS(=O)(=O)Nc1cccc(Nc2ncc(C(F)(F)F)c(-n3cccn3)n2)c1 [Example 121] | ≥ 100 nM | 10 to 100 nM | ≥ 100 nM | ≥ 100 nM |

Now from value to compound:

| IC50 (CDK1/cyclinB1) | IC50 (CDK2/cyclinE1) | IC50 (CDK4/cyclinD3) | IC50 (CDK6/cyclinD3) | Compound |
| --- | --- | --- | --- | --- |
| ≥ 100 nM | 10 to 100 nM | ≥ 100 nM | ≥ 100 nM | CNS(=O)(=O)c1ccc(Nc2ncc(C(F)(F)F)c(-n3cc(C4(C#N)CC4)cn3)n2)cc1 [Example 51, 4-[[4-[4-(1-cyanocyclopropyl)pyrazol-1-yl]-5-(trifluoromethyl)pyrimidin-2-yl]amino]-N-methyl-benzene sulfonamide] |
| ≥ 100 nM | ≤ 10 nM | ≥ 100 nM | ≥ 100 nM | CC(C)(CO)NS(=O)(=O)c1ccc(Nc2ncc(C(F)(F)F)c(-n3cccn3)n2)cc1 [Example 134] |
| ≥ 100 nM | 10 to 100 nM | ≥ 100 nM | ≥ 100 nM | CNS(=O)(=O)c1ccc(Nc2ncc(C(F)(F)F)c(-n3cc(-c4ccoc4)cn3)n2)cc1 [Example 86] |
| ≥ 100 nM | 10 to 100 nM | ≥ 100 nM | ≥ 100 nM | CNS(=O)(=O)c1ccc(Nc2ncc(C#N)c(-n3cccn3)n2)cc1 [Example 26] |
| 10 to 100 nM | ≤ 10 nM | 10 to 100 nM | 10 to 100 nM | CNS(=O)(=O)c1ccc(Nc2ncc(C(F)(F)F)c(-n3cc([C@H]4CCCN4)cn3)n2)cc1 [Example 91, (R)—N-methyl-4-((4-(4-(pyrrolidin-2-yl)-1H-pyrazol-1-yl)-5-(trifluoromethyl)pyrimidin-2-yl)amino)benzenesulfonamide] |
| ≥ 100 nM | ≥ 100 nM | ≥ 100 nM | ≥ 100 nM | O=S1(=O)NCc2cc(Nc3ncc(C(F)(F)F)c(-n4cccn4)n3)ccc21 [Example 42, 1,1-dioxo-N-[4-pyrazol-1-yl-5-(trifluoromethyl)pyrimidin-2-yl]-2,3-dihydro-1,2-benzothiazol-5-amine] |
| ≥ 100 nM | ≤ 10 nM | 10 to 100 nM | ≥ 100 nM | CN1CCC(NS(=O)(=O)c2ccc(Nc3ncc(C(F)(F)F)c(-n4cccn4)n3)cc2)CC1 [Example 35] |
| ≥ 100 nM | 10 to 100 nM | ≥ 100 nM | ≥ 100 nM | O=S(=O)(NCCO)c1ccc(Nc2ncc(F)c(-n3cccn3)n2)cc1 [Example 115] |
| ≥ 100 nM | 10 to 100 nM | ≥ 100 nM | ≥ 100 nM | CNS(=O)(=O)c1ccc(Nc2ncc(C(F)(F)F)c(-n3cc(C4CN(S(C)(=O)=O)C4)cn3)n2)cc1 [Example 98] |
| ≥ 100 nM | ≤ 10 nM | ≥ 100 nM | ≥ 100 nM | O=S(=O)(NCCCO)c1ccc(Nc2ncc(C(F)(F)F)c(-n3cccn3)n2)cc1 [Example 112] |
| ≥ 100 nM | 10 to 100 nM | ≥ 100 nM | 10 to 100 nM | N#Cc1cnc(Nc2ccc(S(=O)(=O)NCCO)cc2)nc1-n1cccn1 [Example 119] |
| ≥ 100 nM | ≤ 10 nM | ≥ 100 nM | ≥ 100 nM | CC(C)(O)CNS(=O)(=O)c1ccc(Nc2ncc(C(F)(F)F)c(-n3cccn3)n2)cc1 [Example 111] |
| ≥ 100 nM | 10 to 100 nM | ≥ 100 nM | ≥ 100 nM | O=S(=O)(NCC1(CO)CC1)c1ccc(Nc2ncc(C(F)(F)F)c(-n3cccn3)n2)cc1 [Example 132] |
| 10 to 100 nM | ≤ 10 nM | 10 to 100 nM | 10 to 100 nM | [2H]C([2H])([2H])NS(=O)(=O)c1ccc(Nc2ncc(C(F)(F)F)c(-n3cc(CCO)cn3)n2)cc1 [Example 10] |
| 10 to 100 nM | 10 to 100 nM | 10 to 100 nM | ≥ 100 nM | CNS(=O)(=O)c1ccc(Nc2ncc(C(F)(F)F)c(-n3cc(CCC(C)(C)O)cn3)n2)cc1 [Example 3] |
| 10 to 100 nM | 10 to 100 nM | 10 to 100 nM | 10 to 100 nM | CNS(=O)(=O)c1ccc(Nc2ncc(C(F)(F)F)c(-n3cc(C4CCN(S(C)(=O)=O)CC4)cn3)n2)cc1 [Example 81] |
| 10 to 100 nM | ≤ 10 nM | 10 to 100 nM | ≥ 100 nM | CNS(=O)(=O)c1ccc(Nc2ncc(C(F)(F)F)c(-n3cc(C4CCN(C)C4)cn3)n2)cc1 (single isomer, unassigned) [Example 95] |
| 10 to 100 nM | ≤ 10 nM | ≤ 10 nM | 10 to 100 nM | CC(C)(O)Cc1cnn(-c2nc(Nc3ccc(S(N)(=O)=O)cc3)ncc2C(F)(F)F)c1 [Example 71] |
| 10 to 100 nM | 10 to 100 nM | ≥ 100 nM | ≥ 100 nM | CNS(=O)(=O)c1ccc(Nc2ncc(C(F)(F)F)c(-n3cc(C(F)(F)F)cn3)n2)cc1 [Example 47] |
